Source: publication PMC11054528, “Evaluation of Physicochemical Properties of Ipsapirone Derivatives Based on Chromatographic and Chemometric Approaches” (Molecules, 2024)

Tests used:
[1] = Fast gradient RP-HPLC on C18 column (CHI lipophilicity); format: physicochemical; conditions: for CHIC18 pH = 2.6 / CHIC18 pH = 7.4 / CHIC18 pH = 10.6: C18 column; for CHI LogP: from chromatographically determined CHI on nonionized forms (pH 10.6), CHI LogP = 0.054 × CHI − 1.467
Excerpt: Considering the significant differences in the calculations obtained, the next step of our investigation considered the determination of lipophilicity using a chromatographic approach. Among the available protocols, the fast gradient approach developed by Valko was chosen because it enables the assessment of lipophilicity from a single chromatographic measurement. In addition, this approach enables the determination of the acid/basic properties of molecules through the addition of experiments under different pH conditions.
Therefore, the CHI under pH10.6 can be considered and converted to chromatographically determined LogP, called CHI LogP. A cluster analysis (CA) was performed to compare chromatographically determined and calculated lipophilicity. A CA can be used for the visualization of similarities and differences between studied objects, in this case, lipophilic parameters. The obtained results clearly indicate that significant differences between theoretical and experimental data occurred, and they formed two separate groups (Figure 1). The differences are also visible on the calculated correlation matrix (Figure 2).
For RP-HPLC experiments, a C18 Hypersil GOLD^TM (50 mm × 4.6 mm; 5.0 µm with a guard column; Thermo Scientific, Waltham, MA, USA) column was applied. The column temperature was set to 40 °C. Three water solutions were used as mobile phase A: acetic acid at pH 2.6, […] at pH 7.4, and 50 mM ammonium acetate at pH 10.5. Mobile phase B was acetonitrile (ACN). The linear gradient from 2 to 98% ACN was applied from 0 to 5.25 min and held at 98% ACN for 1.75. The mobile phase flow rate was 1.5 mL/min throughout the experiment.

[2] = IAM-HPLC, immobilized artificial membrane chromatography (affinity to phospholipids); format: physicochemical; parameters: scale not given here; conditions: IAM.PC.DD2 column, pH 7.4
Excerpt: In considering that lipophilicity is a known factor influencing passive diffusion across the BBB, this is an important observation. The affinity to phospholipids can also be determined using one-gradient protocols and the IAM column. CHIIAM can be used as a cut-off point to indicate the potential for promiscuous binding and interference with phospholipids.
The immobilized artificial membrane column (IAM.PC.DD2, 10 × 4.6 mm × 10.0 µm with a guard column (Regis Technologies; Morton Grove, IL, USA) was used for IAM-HPLC experiments. The column temperature was set to 30 °C. Similar to RP-HPLC, mobile phase A was a 50 mM ammonium acetate at pH 7.4, and mobile phase B was acetonitrile. The linear gradient from […] ACN was applied from 0 to 5.25 min and held at 98% ACN for 0.5 min at a constant flow rate of 1.5 mL/min.

[3] = biological target: human serum albumin (HSA) (Homo sapiens, UniProt P02768); test: HSA-HPLC, biomimetic chromatography on Chiralpak HSA column; format: in vitro ADME; parameters: purchased Daicel Chiral Technologies, West Chester, PA, USA; conditions: for LogKHSA: pH 7.4; for %HSA: pH 7.4, recalculated from logKHSA
Excerpt: Utilizing columns modified by plasma proteins, such as human serum albumin (HSA), allows for estimating binding to plasma protein (PPB). Generally, PPB affects drug pharmacokinetics, including distribution, half-life, and clearance. While lipophilicity is a well-known factor in determining PPB, it should also be considered in early drug discovery. In general, more lipophilic compounds tend to have higher percentages of PP due to nonspecific interactions with proteins. However, hydrophilic compounds can also bind strongly to PP through […] and electrostatic interactions by binding in protein pockets.
For HSA-HPLC experiments, the column was Chiralpak® HSA (100 × 4 mm; 5 µm with safety guard column; Daicel Chiral Technologies, West Chester, PA, USA). The column temperature was set to 30 °C. The same phase A as in the IAM-HPLC case was used, and the mobile phase B was isopropanol (i-PrOH). The linear gradient from 0 to 20% i-PrOH was applied from 0 to 15 min, held at 20% i-PrOH for 12 min, and then returned to pure ammonium acetate solution. The mobile phase flow rate was 0.9 mL/min throughout the experiment. Three minutes of column recalibration was applied between each run. The retention times were collected at wavelengths between 190 and 300 nm, and the injection volume was 10 μL.

Sequence of human serum albumin (HSA) (P02768 25-609): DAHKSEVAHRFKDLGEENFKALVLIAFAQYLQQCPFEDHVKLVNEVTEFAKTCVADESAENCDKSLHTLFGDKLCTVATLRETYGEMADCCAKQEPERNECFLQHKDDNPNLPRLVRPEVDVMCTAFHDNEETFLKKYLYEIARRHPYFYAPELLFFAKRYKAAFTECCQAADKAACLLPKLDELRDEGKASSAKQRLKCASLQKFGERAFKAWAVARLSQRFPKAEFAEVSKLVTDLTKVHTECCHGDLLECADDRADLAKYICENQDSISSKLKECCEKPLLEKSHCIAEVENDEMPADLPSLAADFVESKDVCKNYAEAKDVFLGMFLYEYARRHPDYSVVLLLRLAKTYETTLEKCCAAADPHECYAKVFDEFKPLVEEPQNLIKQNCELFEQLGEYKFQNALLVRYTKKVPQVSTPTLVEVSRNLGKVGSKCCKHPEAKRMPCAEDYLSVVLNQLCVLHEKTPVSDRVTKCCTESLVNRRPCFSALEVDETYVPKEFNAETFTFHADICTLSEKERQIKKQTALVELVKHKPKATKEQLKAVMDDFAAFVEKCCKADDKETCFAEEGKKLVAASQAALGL

Compound	CHIC18 pH = 2.6 [1]	CHIC18 pH = 7.4 [1]	CHIC18 pH = 10.6 [1]	CHI LogP [1]	CHIIAM [2]	LogKHSA [3]	%HSA [3] [%]	affinity to HSA compared with reference diclofenac [3]	affinity to HSA, in words [3]
COc1ccccc1N1CCN(CCCCN2C(=O)c3ccccc3S2(=O)=O)CC1 [molecule 2]	60.08	110.90	109.41	4.44	46.90	1.72	99.13		
O=C1c2ccccc2S(=O)(=O)N1CCCCN1CCN(c2cccc(Cl)c2Cl)CC1 [molecule 3]	49.19	78.80	87.69	3.27	35.71	0.52	77.60		
O=C1c2ccccc2S(=O)(=O)N1CCCCN1CCN(c2ccc(Cl)cc2)CC1 [molecule 4]	56.31	100.82	100.70	3.97	42.61	1.32	96.38		
O=C1c2ccccc2S(=O)(=O)N1CCCCCN1CCN(c2ccccc2)CC1 [molecule 5]	52.20	89.50	95.60	3.70	39.09	0.84	88.23		
COc1ccccc1N1CCN(CCCCCN2C(=O)c3ccccc3S2(=O)=O)CC1 [molecule 6]	52.94	79.45	91.77	3.49	38.03	0.68	83.59		
O=C1c2ccccc2S(=O)(=O)N1CCCCCN1CCN(c2cccc(Cl)c2Cl)CC1 [molecule 7]	72.79	112.26	112.92	4.63	48.28	1.77	99.31		
O=C1c2ccccc2S(=O)(=O)N1CCCCCN1CCN(c2ccc(Cl)cc2)CC1 [molecule 8]	97.99	101.36	100.81	3.98	44.30	1.53	98.11		
O=C1c2ccccc2S(=O)(=O)N1CCCCCN1CCN(c2ncccn2)CC1 [molecule 9]	48.71	74.93	81.12	2.91	34.40	0.58	79.78		
O=C1c2ccccc2S(=O)(=O)N1CCCCCN1CCN(c2ccccn2)CC1 [molecule 10]	38.96	76.74	84.51	3.10	35.73	0.72	84.71		
O=C1c2ccccc2S(=O)(=O)N1CCCCCN1CCN(c2cccc3ccccc23)CC1 [molecule 11]	63.51	104.83	111.43	4.55	47.26	1.67	98.90		
O=C1c2ccccc2S(=O)(=O)N1CCCCCCN1CCN(c2ccccc2)CC1 [molecule 12]	55.26	93.84	100.78	3.98	41.59	1.00	91.87		
COc1ccccc1N1CCN(CCCCCCN2C(=O)c3ccccc3S2(=O)=O)CC1 [molecule 13]	54.89	84.12	96.78	3.76	40.54	0.42	73.28		
COc1cccc(N2CCN(CCCCCCN3C(=O)c4ccccc4S3(=O)=O)CC2)c1 [molecule 14]	55.41	94.73	99.75	3.92	41.42	0.93	90.46		
COc1ccc(N2CCN(CCCCCCN3C(=O)c4ccccc4S3(=O)=O)CC2)cc1 [molecule 15]	55.04	87.50	96.78	3.76	40.04	0.65	82.67		
O=C1c2ccccc2S(=O)(=O)N1CCCCCCN1CCN(c2cccc(Cl)c2)CC1 [molecule 16]	61.89	108.61	111.92	4.58	46.73	1.71	99.06		
O=C1c2ccccc2S(=O)(=O)N1CCCCCCN1CCN(c2ccc(Cl)cc2)CC1 [molecule 17]	61.34	106.56	110.38	4.49	46.32	1.57	98.36		
O=C1c2ccccc2S(=O)(=O)N1CCCCCCN1CCN(c2ccc(Cl)c(Cl)c2)CC1 [molecule 18]	65.39	119.04	118.39	4.93	50.19	2.27		higher affinity to reference diclofenac	
O=C1c2ccccc2S(=O)(=O)N1CCCCCCN1CCN(c2cccc(C(F)(F)F)c2)CC1 [molecule 19]	63.86	113.75	114.05	4.69	46.84	1.85	99.61		
O=C1c2ccccc2S(=O)(=O)N1CCCCCCN1CCN(c2ccccc2F)CC1 [molecule 20]	57.21	97.64	104.68	4.19	42.69	1.00	91.90		
O=C1c2ccccc2S(=O)(=O)N1CCCCCCN1CCN(c2cccc3ccccc23)CC1 [molecule 21]	65.07	109.08	118.03	4.91	48.85	1.75	99.25		
O=C1c2ccccc2S(=O)(=O)N1CCCCCCN1CCN(c2ccccn2)CC1 [molecule 22]	43.25	82.33	90.87	3.44	38.48	0.55	78.60		
O=C1c2ccccc2S(=O)(=O)N1CCCCCCN1CCN(c2ncccn2)CC1 [molecule 23]	41.03	80.76	89.54	3.37	34.77	−0.05	47.66		relatively low-binding to HAS
O=C1c2ccccc2S(=O)(=O)N1CCCCCCN1CCN(c2nsc3ccccc23)CC1 [molecule 24]	60.18	102.90	107.33	4.33	45.78	1.23	95.36		
